From the NIST ThermoML archive (doi:10.1016/j.jct.2007.07.001)
Numbers after ± are expanded uncertainties.

Experiments:
[1] = molar heat capacity at constant pressure; xn = mol fraction of the nth substance listed; settings: 101 kPa, Liquid, Large sample (1 g) DSC
[2] = molar heat capacity at constant pressure; settings: 101 kPa, Liquid, Large sample (1 g) DSC

CO [methanol] + CCCCCCCC[n+]1ccn(C)c1.F[B-](F)(F)F
[1], x2 = 0
Settings	molar heat capacity at constant pressure [J/K/mol]
283.15 K	78.6 ± 1.2
288.15 K	79.5 ± 1.2
293.15 K	80.4 ± 1.2
298.15 K	81.3 ± 1.3
303.15 K	82.3 ± 1.3
308.15 K	83.4 ± 1.3
313.15 K	84.5 ± 1.3
318.15 K	85.7 ± 1.3
323.15 K	87 ± 1.3

CCCCCCn1cc[n+](C)c1.F[B-](F)(F)F [1-hexyl-3-methylimidazolium tetrafluoroborate] + CO
molar heat capacity at constant pressure [J/K/mol], [1]
Settings	283.15 K	288.15 K	293.15 K	298.15 K	303.15 K	308.15 K	313.15 K	318.15 K	323.15 K
x1 = 0.0751	108 ± 1.7	108.7 ± 1.7	109.5 ± 1.7	110.3 ± 1.7	111.2 ± 1.7	112.2 ± 1.7	113.2 ± 1.8	114.2 ± 1.8	115.3 ± 1.8
x1 = 0.1511	135.5 ± 2.1	136.4 ± 2.1	137.4 ± 2.1	138.3 ± 2.1	139.3 ± 2.2	140.3 ± 2.2	141.3 ± 2.2	142.4 ± 2.2	143.4 ± 2.2
x1 = 0.2973	187.2 ± 2.9	188.1 ± 2.9	188.9 ± 2.9	189.9 ± 2.9	190.8 ± 3	191.8 ± 3	192.9 ± 3	193.9 ± 3	195.1 ± 3
x1 = 0.397	220.7 ± 3.4	221.7 ± 3.4	222.8 ± 3.5	223.9 ± 3.5	225.1 ± 3.5	226.3 ± 3.5	227.5 ± 3.5	228.8 ± 3.5	230.1 ± 3.6
x1 = 0.6423	301.9 ± 4.7	303.6 ± 4.7	305.3 ± 4.7	307 ± 4.8	308.7 ± 4.8	310.5 ± 4.8	312.3 ± 4.8	314.1 ± 4.9	315.9 ± 4.9
x1 = 0.8759	380.4 ± 5.9	382.7 ± 5.9	385 ± 6	387.4 ± 6	389.7 ± 6	392.1 ± 6.1	394.5 ± 6.1	396.9 ± 6.1	399.3 ± 6.2
x1 = 1	423.2 ± 6.6	425.8 ± 6.6	428.4 ± 6.6	431 ± 6.7	433.6 ± 6.7	436.2 ± 6.8	438.8 ± 6.8	441.4 ± 6.8	444 ± 6.9

CCCCCCCC[n+]1ccn(C)c1.F[B-](F)(F)F [1-methyl-3-octylimidazolium tetrafluoroborate]
[2]
Settings	molar heat capacity at constant pressure [J/K/mol]
283.15 K	490.1 ± 7.6
288.15 K	493.2 ± 7.6
293.15 K	496.3 ± 7.7
298.15 K	499.4 ± 7.7
303.15 K	502.5 ± 7.8
308.15 K	505.4 ± 7.8
313.15 K	508.4 ± 7.9
318.15 K	511.3 ± 7.9
323.15 K	514.2 ± 8

CCCCCCn1cc[n+](C)c1.F[B-](F)(F)F [1-hexyl-3-methylimidazolium tetrafluoroborate]
[2]
Settings	molar heat capacity at constant pressure [J/K/mol]
283.15 K	423.2 ± 6.6
288.15 K	425.8 ± 6.6
293.15 K	428.4 ± 6.6
298.15 K	431 ± 6.7
303.15 K	433.6 ± 6.7
308.15 K	436.2 ± 6.8
313.15 K	438.8 ± 6.8
318.15 K	441.4 ± 6.8
323.15 K	444 ± 6.9

CO [methanol] + CCCCCCn1cc[n+](C)c1.F[B-](F)(F)F
[1], x2 = 0
Settings	molar heat capacity at constant pressure [J/K/mol]
283.15 K	78.6 ± 1.2
288.15 K	79.5 ± 1.2
293.15 K	80.4 ± 1.2
298.15 K	81.3 ± 1.3
303.15 K	82.3 ± 1.3
308.15 K	83.4 ± 1.3
313.15 K	84.5 ± 1.3
318.15 K	85.7 ± 1.3
323.15 K	87 ± 1.3

CCCCCCCC[n+]1ccn(C)c1.F[B-](F)(F)F [1-methyl-3-octylimidazolium tetrafluoroborate] + CO
molar heat capacity at constant pressure [J/K/mol], [1]
Settings	283.15 K	288.15 K	293.15 K	298.15 K	303.15 K	308.15 K	313.15 K	318.15 K	323.15 K
x1 = 0.0736	111.8 ± 1.7	112.7 ± 1.7	113.6 ± 1.8	114.6 ± 1.8	115.6 ± 1.8	116.6 ± 1.8	117.7 ± 1.8	118.9 ± 1.8	120.1 ± 1.9
x1 = 0.1652	151.5 ± 2.3	152.6 ± 2.4	153.7 ± 2.4	154.7 ± 2.4	155.9 ± 2.4	157 ± 2.4	158.1 ± 2.4	159.3 ± 2.5	160.4 ± 2.5
x1 = 0.3441	226.4 ± 3.5	227.4 ± 3.5	228.5 ± 3.5	229.6 ± 3.6	230.8 ± 3.6	232.1 ± 3.6	233.5 ± 3.6	235 ± 3.6	236.6 ± 3.7
x1 = 0.4516	269.5 ± 4.2	270.8 ± 4.2	272.1 ± 4.2	273.5 ± 4.2	275 ± 4.3	276.6 ± 4.3	278.2 ± 4.3	279.9 ± 4.3	281.6 ± 4.4
x1 = 0.6526	349.3 ± 5.4	351.3 ± 5.4	353.3 ± 5.5	355.3 ± 5.5	357.4 ± 5.5	359.6 ± 5.6	361.8 ± 5.6	364 ± 5.6	366.4 ± 5.7
x1 = 0.8472	427.6 ± 6.6	430.3 ± 6.7	433 ± 6.7	435.7 ± 6.8	438.4 ± 6.8	441.1 ± 6.8	443.7 ± 6.9	446.3 ± 6.9	448.9 ± 7
x1 = 1	490.1 ± 7.6	493.2 ± 7.6	496.3 ± 7.7	499.4 ± 7.7	502.5 ± 7.8	505.4 ± 7.8	508.4 ± 7.9	511.3 ± 7.9	514.2 ± 8

CO [methanol]
[2]
Settings	molar heat capacity at constant pressure [J/K/mol]
283.15 K	78.6 ± 1.2
288.15 K	79.5 ± 1.2
293.15 K	80.4 ± 1.2
298.15 K	81.3 ± 1.3
303.15 K	82.3 ± 1.3
308.15 K	83.4 ± 1.3
313.15 K	84.5 ± 1.3
318.15 K	85.7 ± 1.3
323.15 K	87 ± 1.3
